# pIC50: −log10 of the molar value. Numbered stars: 1 amine (or outer) side, 2 acyl side, 3 side chain; on linkers, the order of the positions; unused ones are H or OH. Bridge positions count the residues as written; N and C are the ends. Square brackets hold non-standard residues; d marks the D form. Peptide text beside a SMILES is read from it. I, II: the chains in the order shown. CO(CH2CH2O)5CH2CH2CO = O=C(CCOCCOCCOCCOCCOCCC(=O)[*:2])[*:1]; X8 = O=C(/C=N/O/C=C/CCCCOc1cc(C[*:2])cc(C[*:3])c1)[*:1]; X3 = O=C(/C=N/OCCCCCCOc1cc(C[*:2])cc(C[*:3])c1)[*:1]; X5 = O=C(CCCCCCOc1cc(C[*:2])cc(C[*:3])c1)[*:1]; tBuAla = CC(C)(C)C[C@H](N)C(=O)O; hSer = N[C@@H](CCO)C(=O)O; Nle = CCCC[C@H](N)C(=O)O
# Target: T1, rh-integrin α4β7/LPAM-1 (Homo sapiens, UniProt P13612+P26010)
# T1 sequence (P13612 34-977 limits assumed): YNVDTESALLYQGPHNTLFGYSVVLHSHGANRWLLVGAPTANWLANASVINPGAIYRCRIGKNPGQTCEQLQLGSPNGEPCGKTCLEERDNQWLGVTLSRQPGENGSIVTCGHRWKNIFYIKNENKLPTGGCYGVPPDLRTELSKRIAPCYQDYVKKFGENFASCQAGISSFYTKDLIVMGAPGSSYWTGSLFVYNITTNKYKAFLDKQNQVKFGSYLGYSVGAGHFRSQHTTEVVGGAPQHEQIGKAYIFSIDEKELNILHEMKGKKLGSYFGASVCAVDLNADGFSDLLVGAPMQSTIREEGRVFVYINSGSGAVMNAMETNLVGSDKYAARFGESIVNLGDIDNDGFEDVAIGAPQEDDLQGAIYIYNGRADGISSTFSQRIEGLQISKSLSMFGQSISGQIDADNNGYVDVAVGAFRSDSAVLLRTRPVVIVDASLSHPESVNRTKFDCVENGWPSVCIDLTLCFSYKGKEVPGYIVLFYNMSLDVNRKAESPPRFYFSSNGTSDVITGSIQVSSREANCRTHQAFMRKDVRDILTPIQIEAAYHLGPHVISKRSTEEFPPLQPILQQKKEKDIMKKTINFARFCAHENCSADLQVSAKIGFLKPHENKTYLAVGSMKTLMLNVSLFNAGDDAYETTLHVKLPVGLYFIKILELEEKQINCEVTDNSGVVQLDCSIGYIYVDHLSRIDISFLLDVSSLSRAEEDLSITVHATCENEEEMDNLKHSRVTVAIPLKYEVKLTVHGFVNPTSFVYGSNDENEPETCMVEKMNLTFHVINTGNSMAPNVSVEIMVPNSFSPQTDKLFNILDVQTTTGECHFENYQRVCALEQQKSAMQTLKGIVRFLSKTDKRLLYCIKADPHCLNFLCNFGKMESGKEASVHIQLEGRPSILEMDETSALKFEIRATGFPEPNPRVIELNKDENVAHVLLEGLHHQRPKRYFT
# T1 sequence (P26010 20-723 limits assumed): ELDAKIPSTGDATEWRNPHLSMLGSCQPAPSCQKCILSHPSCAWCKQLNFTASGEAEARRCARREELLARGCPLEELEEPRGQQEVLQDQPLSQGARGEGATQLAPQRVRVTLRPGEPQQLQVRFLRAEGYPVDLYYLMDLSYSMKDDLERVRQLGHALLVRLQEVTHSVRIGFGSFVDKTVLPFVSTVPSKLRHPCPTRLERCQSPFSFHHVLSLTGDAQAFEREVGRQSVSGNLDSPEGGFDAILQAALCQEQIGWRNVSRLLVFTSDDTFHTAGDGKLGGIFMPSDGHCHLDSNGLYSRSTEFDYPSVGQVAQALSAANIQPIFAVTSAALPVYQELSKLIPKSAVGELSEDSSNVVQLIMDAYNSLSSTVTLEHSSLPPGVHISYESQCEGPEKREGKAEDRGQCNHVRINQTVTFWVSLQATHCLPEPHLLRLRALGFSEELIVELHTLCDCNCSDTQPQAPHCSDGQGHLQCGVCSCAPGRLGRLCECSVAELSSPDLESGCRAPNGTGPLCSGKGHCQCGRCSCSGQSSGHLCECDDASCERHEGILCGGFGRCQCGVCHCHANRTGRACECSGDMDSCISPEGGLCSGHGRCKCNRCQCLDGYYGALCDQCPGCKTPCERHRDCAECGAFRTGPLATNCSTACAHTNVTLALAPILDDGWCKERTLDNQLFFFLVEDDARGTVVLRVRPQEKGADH
# Experiment: α4β7-MadCAM Competition ELISA (Example 4)
# Assay type: binding
# Details: Table 3 Representative compounds; inhibition of MAdCAM binding to coated α4β7; read-out: IC50
# Procedure: After washing with wash buffer, 200 μL assay buffer was added to each well and incubated for one hour at 28° C. After another wash with wash buffer, 100 μL of a MAdCAM and peptide mixture in assay buffer was added to each well and incubated for one hour at 28° C., followed by washing with wash buffer.
row,Compound,pIC50
1,"C[C@@H](O)[C@@H]1NC(=O)[C@H](CC(=O)O)NC(=O)[C@@H]2CCCN2C(=O)[C@H](Cc2ccc(O)cc2)NC(=O)[C@@H]2CSCc3cc(cc(c3)OCCCC/C=C/O/N=C/C(=O)N[C@@H](CC(N)=O)C(=O)N2)CSC[C@@H](C(N)=O)NC(=O)[C@H](Cc2cnc[nH]2)NC(=O)[C@H](Cc2ccc(O)cc2)NC1=O [compound 89, TSL6- SNCYPDTYHC] (NCYPDTYHC-NH2; linker N-2-9 via X8)",4.10
2,"CC(C)C[C@@H]1NC(=O)[C@@H]2CCCN2C(=O)[C@@H]2CSCc3cc(cc(c3)OCCCCCCO/N=C/C(=O)N[C@@H](CCCCN)C(=O)N2)CSC[C@@H](C(N)=O)NC(=O)[C@H](CO)NC(=O)[C@@H]2CCCN2C(=O)[C@H](C(C)C)NC(=O)[C@H](CC(=O)O)NC1=O [compound 31, TSL6- SKCPLDVPSC] (KCPLDVPSC-NH2; linker N-2-9 via X3)",6.14
3,CC[C@H](C)[C@@H]1NC(=O)[C@H](CC(=O)O)NC(=O)[C@H](CCSC)NC(=O)[C@@H]2CCCN2C(=O)C(NC(=O)[C@H](CCCNC(=N)N)NC(=O)[C@H](CO)NC(C)=O)CSSC[C@@H](C(=O)N[C@@H](CCCCNC(=O)COCC(=O)NCCCC[C@H](NC(=O)[C@@H]2CSSC[C@H](NC(=O)[C@H](CCCNC(=N)N)NC(=O)[C@H](CO)NC(C)=O)C(=O)N3CCC[C@H]3C(=O)N[C@@H](CCSC)C(=O)N[C@@H](CC(=O)O)C(=O)N[C@@H]([C@@H](C)CC)C(=O)N[C@@H](C)C(=O)NCC(=O)N[C@@H](CCC(=O)O)C(=O)N2)C(N)=O)C(N)=O)NC(=O)[C@H](CCC(=O)O)NC(=O)CNC(=O)[C@H](C)NC1=O (stereo in doubt) [compound 32],6.14
4,"CC(C)C[C@@H]1NC(=O)[C@@H]2CCCN2C(=O)[C@@H]2CSCc3cc(cc(c3)OCCCCCCO/N=C/C(=O)N[C@@H](CCCCN)C(=O)N2)CSC[C@@H](C(N)=O)NC(=O)[C@H](CCC(=O)O)NC(=O)[C@H](Cc2ccc(O)cc2)NC(=O)[C@@H]2CCCN2C(=O)[C@H]([C@@H](C)O)NC(=O)[C@H](C)NC1=O [compound 108, TSL6- SKCPLATPYEC] (KCPLATPYEC-NH2; linker N-2-10 via X3)",< 3.30
5,"CC(C)[C@@H]1NC(=O)[C@H](CCCCN)NC(=O)[C@@H]2CCCN2C(=O)[C@@H]2CCCN2C(=O)[C@H](CC(=O)O)NC(=O)[C@H](Cc2cnc[nH]2)NC(=O)[C@@H]2CSCc3cc(cc(c3)OCCCCCCO/N=C/C(=O)N[C@@H](CO)C(=O)N2)CSC[C@@H](C(N)=O)NC1=O [compound 77, TSL6- SKCPADVPSC] (SCHDPPKVC-NH2; linker N-2-9 via X3)",4.39
6,"C[C@@H](O)[C@@H]1NC(=O)[C@H](Cc2ccccc2)NC(=O)[C@H](CCCCN)NC(=O)[C@H](CC(=O)O)NC(=O)[C@H](Cc2cnc[nH]2)NC(=O)[C@@H]2CSCc3cc(cc(c3)OCCCCCCO/N=C/C(=O)N[C@@H](CO)C(=O)N2)CSC[C@@H](C(N)=O)NC(=O)[C@H](CCC(=O)O)NC1=O [compound 60, TSL6- SDCHDKFTEC] (SCHDKFTEC-NH2; linker N-2-9 via X3)",5.27
7,CC[C@H](C)[C@@H]1NC(=O)[C@H](CC(=O)O)NC(=O)[C@H](CCSC)NC(=O)[C@@H]2CCCN2C(=O)[C@@H]2CSCc3cc(cc(c3)OCCCCCCO/N=C/C(=O)N[C@@H](CCCNC(=N)N)C(=O)N2)CSC[C@@H](C(N)=O)NC(=O)[C@H]([C@@H](C)O)NC(=O)[C@@H]2CCCN2C1=O [compound 20] (RCPMDIPTC-NH2; linker N-2-9 via X3),6.39
8,"CSCC[C@@H]1NC(=O)[C@@H]2CCCN2C(=O)[C@@H]2CSCc3cc(cc(c3)OCCCCCCO/N=C/C(=O)N[C@@H](C)C(=O)N2)CSC[C@@H](C(N)=O)NC(=O)[C@H](CCC(=O)O)NC(=O)CNC(=O)[C@H](C)NC(=O)[C@H](C(C)C)NC(=O)[C@H](CC(=O)O)NC1=O [compound 61, TSL6- SACPMDVAGEC] (ACPMDVAGEC-NH2; linker N-2-10 via X3)",5.22
9,"CCCC[C@@H]1NC(=O)[C@H](CO)NC(=O)[C@@H]2CSSC[C@@H](C(=O)N[C@@H](Cc3c[nH]c4ccccc34)C(=O)N[C@@H](CCC(N)=O)C(N)=O)NC(=O)[C@H](C(C)C)NC(=O)[C@@H](CC(=O)O)NC(=O)[C@H](CC(C)C)NC(=O)[C@H](CO)NC(=O)[C@H](CCCNC(=N)N)NC(=O)[C@H](CSCC(=O)N[C@@H](CCCNC(=N)N)C(=O)N2)NC(=O)[C@H]([C@@H](C)CC)NC(=O)[C@H](CC(=O)O)NC1=O [compound 70, Disulfide- RCS{Nle}DICRS LDVCWQ] ({CH2CO}-RCS[Nle]DICRSL[dD]VCWQ-NH2; disulfide 2-13; thioether N-7)",4.71
10,CC[C@H](C)[C@@H]1NC(=O)[C@H](CC(=O)O)NC(=O)[C@H](CCSC)NC(=O)[C@@H]2CCCN2C(=O)[C@@H]2CSCc3cc(cc(c3)OCCCCCCO/N=C/C(=O)N[C@@H](CCCNC(=N)N)C(=O)N2)CSC[C@@H](C(N)=O)NC(=O)[C@H](CCC(=O)O)NC(=O)[C@H](CCC(N)=O)NC(=O)[C@H](Cc2c[nH]c3ccccc23)NC1=O [compound 16] (RCPMDIWQEC-NH2; linker N-2-10 via X3),6.57
11,"CC[C@H](C)[C@@H]1NC(=O)[C@H](C(C)C)NC(=O)[C@H](CC(=O)O)NC(=O)[C@H](CC(C)C)NC(=O)[C@H](CCSC)NC(=O)[C@@H]2CSCc3cc(cc(c3)OCCCCCCO/N=C/C(=O)N[C@@H](C)C(=O)N2)CSC[C@@H](C(N)=O)NC(=O)[C@H](CO)NC1=O [compound 85, TSL6- SACMLDVISC] (ACMLDVISC-NH2; linker N-2-9 via X3)",4.18
12,"COCC[C@@H]1NC(=O)[C@@H]2CCCN2C(=O)[C@@H]2CSCc3cc(cc(c3)OCCCCCCC(=O)NCC(=O)N[C@@H](CCCNC(=N)N)C(=O)N2)CSC[C@@H](C(N)=O)NC(=O)[C@H](CCC(=O)O)NC(=O)[C@H](CCC(N)=O)NC(=O)[C@@H]2CCCN2C(=O)[C@H](CC(C)(C)C)NC(=O)[C@H](CC(=O)O)NC1=O [compound 80, TSLC7-GQCP{Hse(OMe)} D{tBuAla}PQEC] (GRCP[hSer](Me)D[tBuAla]PQEC-NH2; linker N-3-11 via X5)",4.25
13,"CSCC[C@@H]1NC(=O)[C@H]([C@@H](C)O)NC(=O)[C@H](C)NC(=O)CNC(=O)[C@@H]2CSCc3cc(cc(c3)OCCCCCCO/N=C/C(=O)N[C@@H](Cc3ccccc3)C(=O)N2)CSC[C@@H](C(N)=O)NC(=O)[C@H](CCCCN)NC(=O)[C@H](CCCCN)NC1=O [compound 100, TSL6- SFCGATMKKC] (FCGATMKKC-NH2; linker N-2-9 via X3)",3.79

# Same assay, conditions: competition ELISA, 4 μg/mL α4β7 coated, MAdCAM and peptide mixture, 28° C.; read-out: IC50
row,Compound,pIC50
1,"CC[C@H](C)[C@@H]1NC(=O)[C@H](CC(=O)O)NC(=O)[C@H](CCSC)NC(=O)[C@@H]2CCCN2C(=O)[C@@H](NC(=O)[C@H](CCCNC(=N)N)NC(=O)[C@H](CO)NC(C)=O)CSSC[C@@H](C(=O)N[C@@H](CCCCNC(=O)CCOCCOCCOCCOCCOCCC(=O)NCCCC[C@H](NC(=O)[C@@H]2CSSC[C@H](NC(=O)[C@H](CCCNC(=N)N)NC(=O)[C@H](CO)NC(C)=O)C(=O)N3CCC[C@H]3C(=O)N[C@@H](CCSC)C(=O)N[C@@H](CC(=O)O)C(=O)N[C@@H]([C@@H](C)CC)C(=O)N[C@@H](C)C(=O)NCC(=O)N[C@@H](CCC(=O)O)C(=O)N2)C(N)=O)C(N)=O)NC(=O)[C@H](CCC(=O)O)NC(=O)CNC(=O)[C@H](C)NC1=O [SEQ ID NO: 109] (I: Ac-SRCPMDIAGECK-NH2 / II: Ac-SRCPMDIAGECK-NH2; disulfide I:3-I:11, II:3-II:11; linker I:12-II:12 via CO(CH2CH2O)5CH2CH2CO)",5.76
